Experimental data: patent US11840686B2, “Modulation of prekallikrein (PKK) expression” (Ionis Pharmaceuticals, Inc., priority 2013, dated 2023)
Strand notation (5' to 3'): a small letter for the sugar, then the base; units joined by * are phosphorothioate-linked, units joined directly phosphodiester-linked; [ ] holds rarer units or linkages, { } end groups; capitals alone tell only the bases. e = 2'-O-(2-methoxyethyl) (MOE); k = constrained ethyl (cEt); [5mC] = 5-methylcytosine; d = 2'-deoxy (DNA)

tested on: human PKK mRNA; assay: Antisense inhibition of human PKK mRNA in HepaRG cells, 1,000 nM, MOE/deoxy/cEt oligonucleotides (Example 3); format: cell-based; settings: HepaRG cells, 1,000 nM antisense oligonucleotide, Table 29
How it was run: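 HepaRG cells at 20,000 per well electroporated with 1,000 nM 16-mer MOE/cEt/deoxy gapmers (phosphorothioate, 5-methylcytosine). After about 24 h, PKK mRNA measured by qRT-PCR with primer probe set RTS3454, normalized to RIBOGREEN total RNA. Reported as percent inhibition versus untreated cells.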

Substance | % inhibition
548599 (eT*eG*kG*dG*dT*dT*dG*dG*dA*dG*dG*dA*dG*kT*kG*eG; antisense) [compound 548599] | 19%
548586 (eT*e[5mC]*k[5mC]*dA*dA*d[5mC]*dT*dA*d[5mC]*dA*dG*dG*dA*k[5mC]*kT*e[5mC]; antisense) [compound 548586] | 39%
548572 (eG*e[5mC]*kA*dT*dT*dA*d[5mC]*dT*d[5mC]*dA*dG*d[5mC]*dA*kT*kG*eT; antisense) [compound 548572] | 63%

same assay, conditions: HepaRG cells, electroporation with 1,000 nM antisense oligonucleotide, approx. 24 hours, PKK mRNA by RT-PCR (RTS3454), relative to untreated control cells; Table 25 experiment

Substance | % inhibition
548219 (eG*eA*kA*dA*dT*d[5mC]*d[5mC]*dT*dG*dT*dG*d[5mC]*dA*kT*kA*eG; antisense) [compound 548219] | 8%
548166 (eG*e[5mC]*kG*dA*d[5mC]*d[5mC]*dT*d[5mC]*dG*d[5mC]*dA*dT*dT*kG*kT*e[5mC]; antisense) [compound 548166] | 0%
548209 (e[5mC]*eA*kA*dT*d[5mC]*dT*d[5mC]*dT*dG*dG*dT*d[5mC]*dA*kA*kT*e[5mC]; antisense) [compound 548209] | 57%

same assay, conditions: HepaRG cells, electroporation with 1,000 nM antisense oligonucleotide, approx. 24 hours, PKK mRNA by RT-PCR (RTS3454), relative to untreated control cells; Table 26 experiment

Substance | % inhibition
548249 (antisense eT*eG*kT*dG*dA*dT*dG*d[5mC]*dG*dA*dT*dT*dT*kT*k[5mC]*e[5mC]) [compound 548249] | 22%
548295 (e[5mC]*eT*k[5mC]*dT*dG*dA*dT*dT*dG*dG*dG*dT*d[5mC]*kA*k[5mC]*e[5mC]; antisense) [compound 548295] | 26%
548234 (eT*eT*kA*dT*dT*dG*dT*dA*dG*d[5mC]*d[5mC]*dA*dT*kA*k[5mC]*eA; antisense) [compound 548234] | 17%
548258 (antisense e[5mC]*eA*kA*dG*dT*dG*d[5mC]*dT*d[5mC]*d[5mC]*d[5mC]*d[5mC]*dA*kT*kG*e[5mC]) [compound 548258] | 0%
548264 (antisense e[5mC]*eA*kG*dT*d[5mC]*d[5mC]*dA*dA*dA*dA*dA*dT*d[5mC]*k[5mC]*k[5mC]*eT) [compound 548264] | 60%

same assay, conditions: HepaRG cells, electroporation with 1,000 nM antisense oligonucleotide, approximately 24 hours, primer probe set RTS3454, relative to untreated control cells; experiment of Table 23

Substance | % inhibition
547921 (eT*eG*kA*dG*dA*dA*d[5mC]*d[5mC]*d[5mC]*dT*dG*dG*d[5mC]*kA*kA*e[5mC]; antisense) [compound 547921] | 43%
547984 (antisense e[5mC]*eG*kA*dA*dT*d[5mC]*dA*dT*d[5mC]*dT*dT*dT*dG*kT*kG*e[5mC]) [compound 547984] | 55%
547934 (e[5mC]*eT*k[5mC]*dG*dA*dT*dT*dT*dT*d[5mC]*d[5mC]*dA*dT*kA*k[5mC]*eA; antisense) [compound 547934] | 38%
547982 (antisense eA*eA*kT*d[5mC]*dA*dT*d[5mC]*dT*dT*dT*dG*dT*dG*k[5mC]*kA*eA) [compound 547982] | 54%

same assay, conditions: HepaRG cells, electroporation with 1,000 nM antisense oligonucleotide, approximately 24 hours, primer probe set RTS3454, relative to untreated control cells; experiment of Table 24

Substance | % inhibition
548032 (eA*eG*kA*dT*dG*d[5mC]*dG*d[5mC]*d[5mC]*dA*dA*dA*d[5mC]*kA*kT*e[5mC]; antisense) [compound 548032] | 51%
548065 (eT*eT*kG*dG*dT*dA*dT*dA*dA*dA*dT*dT*dG*kT*kG*e[5mC]; antisense) [compound 548065] | 22%
548068 (e[5mC]*eA*kA*d[5mC]*dA*dG*dT*dT*dG*dG*dT*dA*dT*kA*kA*eA; antisense) [compound 548068] | 0%
548003 (eT*eA*kA*d[5mC]*d[5mC]*dA*dG*dA*dG*d[5mC]*dT*d[5mC]*d[5mC]*k[5mC]*kT*eT; antisense) [compound 548003] | 66%

same assay, conditions: PKK mRNA, HepaRG cells, 1,000 nM antisense oligonucleotide; Table 31

Substance | % inhibition
548633 (antisense e[5mC]*eA*kA*dG*dG*d[5mC]*dA*dT*dG*dT*dG*dT*dG*k[5mC]*kA*e[5mC]) [compound 548633] | 41%
548623 (antisense eG*e[5mC]*kT*dG*dT*d[5mC]*dA*d[5mC]*dT*dT*dA*dA*dG*k[5mC]*k[5mC]*eA) [compound 548623] | 16%
548618 (antisense eG*eT*kT*dG*dG*dT*dG*dG*d[5mC]*dG*dG*dG*dA*kT*k[5mC]*eG) [compound 548618] | 18%

same assay, conditions: Table 19; HepaRG cells, electroporation with 1,000 nM antisense oligonucleotide, approximately 24 hours; PKK mRNA by RT-PCR (RTS3454), relative to untreated control cells

Substance | % inhibition
548119 (antisense eT*eG*kG*dA*d[5mC]*dT*dG*d[5mC]*dT*dT*d[5mC]*dT*d[5mC]*kA*kT*eG) [compound 548119] | 25%
548108 (antisense eG*eA*kG*d[5mC]*dT*dT*dT*dT*d[5mC]*d[5mC]*dA*dT*d[5mC]*kA*k[5mC]*eT) [compound 548108] | 61%
548133 (eA*eG*kA*dA*dT*dT*dT*dG*dA*d[5mC]*dT*dT*dG*kA*kA*e[5mC]; antisense) [compound 548133] | 23%

same assay, conditions: Table 20; HepaRG cells, electroporation with 1,000 nM antisense oligonucleotide, approximately 24 hours; PKK mRNA by RT-PCR (RTS3454), relative to untreated control cells

Substance | % inhibition
547873 (antisense e[5mC]*eT*kG*d[5mC]*dT*dA*dA*d[5mC]*d[5mC]*dT*dT*dA*dG*kA*k[5mC]*eA) [compound 547873] | 77%

same assay, conditions: Table 21 experiment; HepaRG cells, electroporation with 1,000 nM antisense oligonucleotide, approx. 24 hours; PKK mRNA by RT-PCR (RTS3454), relative to untreated control cells

Substance | % inhibition
547828 (e[5mC]*e[5mC]*kT*dG*dT*dT*d[5mC]*dG*dA*dT*dG*dT*dA*k[5mC]*kT*eT; antisense) [compound 547828] | 63%
547838 (e[5mC]*eT*kT*d[5mC]*dA*dA*dG*dG*dA*dA*dT*dG*dT*k[5mC]*k[5mC]*eA; antisense) [compound 547838] | 45%
547802 (eG*eT*kA*d[5mC]*dA*dT*dG*dG*dA*dA*dG*d[5mC]*dT*kA*k[5mC]*eA; antisense) [compound 547802] | 41%
547812 (eG*eT*kG*d[5mC]*dA*d[5mC]*d[5mC]*dT*d[5mC]*dA*dT*d[5mC]*dT*kG*kG*e[5mC]; antisense) [compound 547812] | 51%
547833 (eA*eA*k[5mC]*dT*dG*d[5mC]*dA*d[5mC]*d[5mC]*dT*dG*dT*dT*k[5mC]*kG*eA; antisense) [compound 547833] | 40%
547840 (antisense eT*eT*kG*d[5mC]*dT*dT*d[5mC]*dA*dA*dG*dG*dA*dA*kT*kG*eT) [compound 547840] | 36%
547830 (eG*e[5mC]*kA*d[5mC]*d[5mC]*dT*dG*dT*dT*d[5mC]*dG*dA*dT*kG*kT*eA; antisense) [compound 547830] | 74%

same assay, conditions: Table 22 experiment; HepaRG cells, electroporation with 1,000 nM antisense oligonucleotide, approx. 24 hours; PKK mRNA by RT-PCR (RTS3454), relative to untreated control cells

Substance | % inhibition
547873 (antisense e[5mC]*eT*kG*d[5mC]*dT*dA*dA*d[5mC]*d[5mC]*dT*dT*dA*dG*kA*k[5mC]*eA) [compound 547873] | 82%

same assay, conditions: Table 27; HepaRG cells, 1,000 nM antisense oligonucleotide; human PKK mRNA

Substance | % inhibition
548318 (eA*e[5mC]*kT*dG*d[5mC]*dA*d[5mC]*d[5mC]*d[5mC]*d[5mC]*dA*d[5mC]*dA*kT*kA*eT; antisense) [compound 548318] | 18%
548337 (antisense eT*eA*k[5mC]*d[5mC]*dG*d[5mC]*dT*dG*dG*dG*dT*dG*d[5mC]*kG*kG*eT) [compound 548337] | 10%
548327 (e[5mC]*eT*kA*d[5mC]*dA*d[5mC]*d[5mC]*dT*dT*dT*d[5mC]*dT*dG*k[5mC]*kA*e[5mC]; antisense) [compound 548327] | 6%
548361 (antisense e[5mC]*eT*kT*dA*dT*d[5mC]*dA*dG*dT*d[5mC]*d[5mC]*d[5mC]*dA*kG*kT*e[5mC]) [compound 548361] | 52%
548372 (eG*eA*kT*dA*d[5mC]*d[5mC]*dT*dT*dT*d[5mC]*d[5mC]*dA*d[5mC]*kT*k[5mC]*e[5mC]; antisense) [compound 548372] | 61%
548316 (e[5mC]*eT*kG*dT*dT*d[5mC]*dA*dG*dG*dT*dA*dG*d[5mC]*kA*k[5mC]*eA; antisense) [compound 548316] | 64%

same assay, conditions: Table 28; HepaRG cells, 1,000 nM antisense oligonucleotide; human PKK mRNA

Substance | % inhibition
548516 (antisense e[5mC]*eT*kT*dG*d[5mC]*d[5mC]*dT*dA*dT*dT*d[5mC]*dA*d[5mC]*k[5mC]*k[5mC]*e[5mC]) [compound 548516] | 49%
548466 (e[5mC]*eG*kT*d[5mC]*dA*d[5mC]*dT*dG*dT*dA*d[5mC]*d[5mC]*dT*kA*kT*eA; antisense) [compound 548466] | 71%
548506 (antisense eG*eA*kA*dG*d[5mC]*d[5mC]*dA*dT*dT*d[5mC]*dA*d[5mC]*dT*kG*k[5mC]*eA) [compound 548506] | 32%

same assay, conditions: Table 30; human PKK mRNA, HepaRG cells, 1,000 nM antisense oligonucleotide

Substance | % inhibition
548399 (eA*eG*kT*d[5mC]*d[5mC]*dT*dA*d[5mC]*dA*dA*dT*dT*dA*k[5mC]*k[5mC]*eA; antisense) [compound 548399] | 11%
548390 (eG*e[5mC]*kT*dG*dA*dG*dT*dG*dT*dG*dA*d[5mC]*dT*kT*kA*eA; antisense) [compound 548390] | 43%
548414 (antisense eT*e[5mC]*kT*dA*dA*d[5mC]*dA*dG*dT*dA*dT*d[5mC]*dA*k[5mC]*kT*eG) [compound 548414] | 20%
548429 (antisense eT*eA*kT*dA*dA*d[5mC]*dT*dA*dT*dA*dA*d[5mC]*dA*kG*kT*eA) [compound 548429] | 0%
548396 (eT*eA*kA*dT*dG*dA*dG*dT*dG*dG*dG*dT*dT*kA*kG*eG; antisense) [compound 548396] | 0%
